Results published in ChEMBL document CHEMBL3885861, “Open TG-GATES”.

Species on record: Rattus norvegicus
Experiment: Open TG-GATES - Regimen: Daily Repeat
Type: toxicity, organism-based, Sprague-Dawley
Set-up: regimen Daily Repeat, gender Male, age 6 weeks
Settings: in vivo, po, 0 mg/kg, route gavage, dose level Control; for APTT / Bas / Eos / Fbg / Hb / Ht / Lym / MCH / MCHC / MCV / Mono / Neu / PT / Plat / RBC / Ret / WBC: tissue Blood; for ALP / ALT / AST / BUN / CRE / DBIL / GLC / IP / K / Na / PL / RALB / TBIL / TC / TG / TP / gamma-GTP: tissue Plasma

SMILES: NS(=O)(=O)c1cc(C(=O)O)c(NCc2ccco2)cc1Cl [FUROSEMIDE]
- TERMINAL_BW (72 h, time 3 day): 240.2 g
- APTT (72 h, time 3 day): 15.8 s
- Bas (72 h, time 3 day): 0.2%
- Eos (72 h, time 3 day): 1%
- Fbg (72 h, time 3 day): 306 mg/dL
- Hb (72 h, time 3 day): 13.5 g/dL
- Ht (72 h, time 3 day): 40.3%
- Lym (72 h, time 3 day): 73.8%
- MCH (72 h, time 3 day): 21.5 pg
- MCHC (72 h, time 3 day): 33.6%
- MCV (72 h, time 3 day): 64.1 fL
- Mono (72 h, time 3 day): 3.2%
- Neu (72 h, time 3 day): 21.2%
- PT (72 h, time 3 day): 14.8 s
- Plat (72 h, time 3 day): 114.8 x10_4/uL
- RBC (72 h, time 3 day): 629.2 x10_4/ul
- Ret (72 h, time 3 day): 6.5%
- WBC (72 h, time 3 day): 92.7 x10_2/uL
- ALP (72 h, time 3 day): 1396.2 IU/L
- ALT (72 h, time 3 day): 42 IU/L
- AST (72 h, time 3 day): 66.2 IU/L
- BUN (72 h, time 3 day): 14.4 mg/dL
- CRE (72 h, time 3 day): 0.2 mg/dL
- DBIL (72 h, time 3 day): 0.016 mg/dL
- GLC (72 h, time 3 day): 180.2 mg/dL
- IP (72 h, time 3 day): 7.7 mg/dL
- K (72 h, time 3 day): 3.8 meq/L
- Na (72 h, time 3 day): 142.6 meq/L
- PL (72 h, time 3 day): 182 mg/dL
- RALB (72 h, time 3 day): 2.7 g/dL
- TBIL (72 h, time 3 day): 0.056 mg/dL
- TC (72 h, time 3 day): 91 mg/dL
- TG (72 h, time 3 day): 130 mg/dL
- TP (72 h, time 3 day): 5.8 g/dL
- gamma-GTP (72 h, time 3 day): 0.4 IU/L
- TERMINAL_BW ([…], time 7 day): 280.2 g
- TERMINAL_BW ([…], time 14 day): 327.8 g
- TERMINAL_BW ([…], time 28 day): 406.3 g
- APTT ([…], time 7 day): 17.8 s
- Bas ([…], time 7 day): 0.6%
- Eos ([…], time 7 day): 1%
- Fbg ([…], time 7 day): 294.2 mg/dL
- Hb ([…], time 7 day): 13.7 g/dL
- Ht ([…], time 7 day): 39.9%
- Lym ([…], time 7 day): 80.2%
- MCH ([…], time 7 day): 21.2 pg
- MCHC ([…], time 7 day): 34.5%
- MCV ([…], time 7 day): 61.5 fL
- Mono ([…], time 7 day): 2.6%
- Neu ([…], time 7 day): 14.8%
- PT ([…], time 7 day): 15.5 s
- Plat ([…], time 7 day): 125.8 x10_4/uL
- RBC ([…], time 7 day): 648.6 x10_4/ul
- Ret ([…], time 7 day): 5.2%
- WBC ([…], time 7 day): 100.8 x10_2/uL
- APTT ([…], time 14 day): 19.3 s
- Bas ([…], time 14 day): 0.4%
- Eos ([…], time 14 day): 1%
- Fbg ([…], time 14 day): 289.4 mg/dL
- Hb ([…], time 14 day): 15 g/dL
- Ht ([…], time 14 day): 43.1%
- Lym ([…], time 14 day): 81%
- MCH ([…], time 14 day): 21 pg
- MCHC ([…], time 14 day): 34.7%
- MCV ([…], time 14 day): 60.4 fL
- Mono ([…], time 14 day): 2.8%
- Neu ([…], time 14 day): 14.2%
- PT ([…], time 14 day): 15.3 s
- Plat ([…], time 14 day): 117.3 x10_4/uL
- RBC ([…], time 14 day): 713.8 x10_4/ul
- Ret ([…], time 14 day): 4.2%
- WBC ([…], time 14 day): 117.4 x10_2/uL
- APTT ([…], time 28 day): 17.8 s
- Bas ([…], time 28 day): 0.6%
- Eos ([…], time 28 day): 1.2%
- Fbg ([…], time 28 day): 266.6 mg/dL
- Hb ([…], time 28 day): 15.1 g/dL
- Ht ([…], time 28 day): 44.6%
- Lym ([…], time 28 day): 82.2%
- MCH ([…], time 28 day): 19.1 pg
- MCHC ([…], time 28 day): 33.7%
- MCV ([…], time 28 day): 56.7 fL
- Mono ([…], time 28 day): 2.2%
- Neu ([…], time 28 day): 13.4%
- PT ([…], time 28 day): 16.4 s
- Plat ([…], time 28 day): 100.7 x10_4/uL
- RBC ([…], time 28 day): 787.6 x10_4/ul
- Ret ([…], time 28 day): 1.8%
- WBC ([…], time 28 day): 98.8 x10_2/uL
- ALP ([…], time 7 day): 1277.2 IU/L
- ALT ([…], time 7 day): 38.2 IU/L
- AST ([…], time 7 day): 61.4 IU/L
- BUN ([…], time 7 day): 15.6 mg/dL
- CRE ([…], time 7 day): 0.2 mg/dL
- DBIL ([…], time 7 day): 0.018 mg/dL
- GLC ([…], time 7 day): 179.4 mg/dL
- IP ([…], time 7 day): 7.8 mg/dL
- K ([…], time 7 day): 4 meq/L
- Na ([…], time 7 day): 142.6 meq/L
- PL ([…], time 7 day): 168 mg/dL
- RALB ([…], time 7 day): 2.7 g/dL
- TBIL ([…], time 7 day): 0.05 mg/dL
- TC ([…], time 7 day): 85.6 mg/dL
- TG ([…], time 7 day): 119.8 mg/dL
- TP ([…], time 7 day): 5.9 g/dL
- gamma-GTP ([…], time 7 day): 0.8 IU/L
- ALP ([…], time 14 day): 1456.8 IU/L
- ALT ([…], time 14 day): 43.4 IU/L
- AST ([…], time 14 day): 64.6 IU/L
- BUN ([…], time 14 day): 15.2 mg/dL
- CRE ([…], time 14 day): 0.2 mg/dL
- DBIL ([…], time 14 day): 0.014 mg/dL
- GLC ([…], time 14 day): 177.8 mg/dL
- IP ([…], time 14 day): 7.4 mg/dL
- K ([…], time 14 day): 4.1 meq/L
- Na ([…], time 14 day): 143.6 meq/L
- PL ([…], time 14 day): 160.6 mg/dL
- RALB ([…], time 14 day): 2.8 g/dL
- TBIL ([…], time 14 day): 0.046 mg/dL
- TC ([…], time 14 day): 69.8 mg/dL
- TG ([…], time 14 day): 157.2 mg/dL
- TP ([…], time 14 day): 6.1 g/dL
- gamma-GTP ([…], time 14 day): 0.6 IU/L
- ALP ([…], time 28 day): 1033.8 IU/L
- ALT ([…], time 28 day): 36.4 IU/L
- AST ([…], time 28 day): 64.6 IU/L
- BUN ([…], time 28 day): 14.4 mg/dL
- CRE ([…], time 28 day): 0.2 mg/dL
- DBIL ([…], time 28 day): 0.016 mg/dL
- GLC ([…], time 28 day): 183.4 mg/dL
- IP ([…], time 28 day): 6.3 mg/dL
- K ([…], time 28 day): 3.9 meq/L
- Na ([…], time 28 day): 143.8 meq/L
- PL ([…], time 28 day): 137.2 mg/dL
- RALB ([…], time 28 day): 2.8 g/dL
- TBIL ([…], time 28 day): 0.048 mg/dL
- TC ([…], time 28 day): 64.8 mg/dL
- TG ([…], time 28 day): 116.6 mg/dL
- TP ([…], time 28 day): 6.2 g/dL
- gamma-GTP ([…], time 28 day): 0.4 IU/L
